Measurements as given in patent US20250177412A1, “SMALL-MOLECULE INHIBITORS TARGETING THE BOB1/OCT1 INTERFACE” (NANTES UNIVERSITE, priority 2022, published 2025).
Like-named read-outs stand apart in the source and are kept apart here.

Legend:
[1] = tested on: CD4+CD25- effector T cells; test: T cell suppression assay (B cell / CD4+CD25- T cell co-culture); format: cell-based, human; details: for inhibition at 10 µM: Homo sapiens, T-cell, read-out: T-cell proliferation (percentage inhibition)
Description: B cells were kept unstimulated (B resting) or stimulated (B expanded) for 24 hours with the expansion mixture containing F(ab′)2 anti-BCR, CpG ODN, CD40L, IL-2, and IL-21. FIG. 6A-B show the expression level of granzyme B measured as frequency (FIG. 6A) and by the MFI (FIG. 6B) in DMSO-treated (compound 005-) and 10 μM compound 005-treated resting (open circles) and expanded for […] (closed circles) B cells. FIG. 6C-G show resting and expanded B cells washed with fresh medium and co-cultured with autologous CPD-labelled CD4^+CD25^− effector T cells for 3 days in the presence of anti-CD3/CD28 Dynabeads. compound 005 was added to the B cells only during 24-hours of activation with the expansion mixture (FIG. 6C-D), followed by daily supplementation during three days of co-culture (FIG. 6E-G). Representative offset histogram overlays showing median fluorescence intensity of staining of gated live […] with cell proliferation dye (CPD) (FIGS. 6C, 6E and 6F). The percentage of proliferating cells is indicated for one representative donor. FIGS. 6D and 6G show corresponding summarized data for the percentage inhibition of proliferation of anti-CD3/CD28-activated CD4^+CD25^− T cells co-cultured with resting (open circles) or expanded (closed circles) B cells without BOB1 inhibitor (DMSO-treated control) or in the presence of 10 μM compound 005. Bars indicate the mean±SD. ** P<0.01, *** P<0.001. FIG. 6H-J Expression values of POU2AF1 (FIG. 6H), POU2F1 (FIG. 6I), and POU2F2 (FIG. 6J) genes encoding BOB1, OCT1 and OCT2, respectively, extracted from scRNA-seq data on B cells stimulated toward regulatory (expanded) or unstimulated (rested). Data are represented with bar plots as mean+SD of non-zero values or with dot plots represented as a percentage of positive cells (FIG. 6H-J) or the average expression in each condition (FIG. 6K). P-values are adjusted to the number of expressed genes in the dataset.
Cells were resuspended in PBS and labelled with Cell Proliferation Dye eFluor 450 (CPD) (eBioscience) at a final concentration of 10 μM at 37° C. for 10 min, kept on ice for 5 min, and washed twice with 10 mL of ice-cold RPMI 1640 10% FCS medium.
Primary total human B cells (1×10^6 cells/mL) were prestimulated for ˜24 h with the cocktail containing 10 ng/mL of IL-21 (Miltenyi Biotec), 5 μg/mL of F(ab′)2 anti-BCR Abs (Jackson ImmunoResearch Laboratories Inc.), 50 ng/ml of CD40L (R&D systems), 1 μg/mL of CpG oligonucleotides (ODN 2006, Invivogen), and 50 U/mL of IL-2 (Novartis) as previously described, in the presence of vehicle (DMSO) or 10 μM compound 005. […] The capacity of B cells to suppress effector T cell proliferation was assessed as previously described. […] T cell proliferation was evaluated as the percentage of CPD-low T cells on day 3. […]

memory B cells = test: Immunoglobulin isotype production (LEGENDplex 8-plex); format: cell-based, human; details: day 7
Description: B cells were stimulated to differentiate into plasmablasts using a two-phase cell culture protocol as previously described. Briefly, B cells were seeded at 4×10^5 cells/mL in 24-well plates and activated during 4 days with 50 ng/mL recombinant human soluble CD40L (R&D Systems), 2.5 μg/mL CpG oligodeoxynucleotide (ODN) 2006 (Amidogen or Cayla Invivogen), 2 μg/mL F(ab′)2 fragment goat anti-human IgA+IgG+IgM (H+L) polyclonal Abs (anti-BCR) (Jackson ImmunoResearch Laboratories), and 50 U/mL human IL-2 (SARL Pharmaxie or Novartis). […] At days 0, 4 and 7, B cells were stained with viability marker LIVE/DEAD Fixable Aqua Dead Cell Stain (Thermofisher) to identify dead cells, followed by extracellular staining with anti-human mAbs: anti-CD20 FITC, anti-IgD BUV395, anti-CD27 BUV737, anti-CD38 BV605 (all from BD Biosciences) and analyzed by flow cytometry (FACSCelesta™, BD Biosciences). In some experiments, B cell apoptosis was evaluated by intracellular active caspase-3 staining (Caspase-3-PE, BD Biosciences).
Immunoglobulin isotypes were quantified using the Human Immunoglobulin Isotyping LEGENDplex 8-plex kit (BioLegend) according to the manufacturer's instructions. Data were collected on the BD FACSCanto™ II flow cytometer and analyzed using LEGENDplex Data Analysis Software.

B cells = test: B cell apoptosis by intracellular active caspase-3 staining; format: cell-based; details: for percentage of caspase-3 positive B cells: day 7, mean±SD
Description: FIG. 5E-F show corresponding summarized data (n=8) for the frequency of caspase-3^+CD38^+/− non-plasmablasts (FIG. 5E) and caspase-3^+CD20^lowCD38^++ plasmablasts (FIG. 5F) at Day 7. […] Error bars are mean±SD. P values were determined with one-way ANOVA with Geisser-Greenhouse's multiple comparisons test.
B cells were stimulated to differentiate into plasmablasts using a two-phase cell culture protocol as previously described. Briefly, B cells were seeded at 4×10^5 cells/mL in 24-well plates and activated during 4 days with 50 ng/mL recombinant human soluble CD40L (R&D Systems), 2.5 μg/mL CpG oligodeoxynucleotide (ODN) 2006 (Amidogen or Cayla Invivogen), 2 μg/mL F(ab′)2 fragment goat anti-human IgA+IgG+IgM (H+L) polyclonal Abs (anti-BCR) (Jackson ImmunoResearch Laboratories), and 50 U/mL human IL-2 (SARL Pharmaxie or Novartis). Day 4-activated B cells were washed and cultured at the same concentration for three additional days in a fresh medium containing 50 U/mL human IL-2, 10 ng/mL human IL-4 (R&D Systems), and 10 ng/mL human IL-10 (R&D Systems) to induce B cell differentiation into plasmablasts. At days 0, 4 and 7, B cells were stained with viability marker LIVE/DEAD Fixable Aqua Dead Cell Stain (Thermofisher) to identify dead cells, followed by extracellular staining with anti-human mAbs: anti-CD20 FITC, anti-IgD BUV395, anti-CD27 BUV737, anti-CD38 BV605 (all from BD Biosciences) and analyzed by flow cytometry (FACSCelesta™, BD Biosciences). In some experiments, B cell apoptosis was evaluated by intracellular active caspase-3 staining (Caspase-3-PE, BD Biosciences).

SMILES: Cc1ccc(NC(=O)C2CN(c3nc(NCCCc4ccc(F)cc4)nc(NCCC(=O)O)n3)c3ccccc3O2)cc1Cl (centres unmarked) [compound 005, 3-((4-(2-((3-chloro-4-methylphenyl)carbamoyl)-2,3-dihydro-4H-benzo[b][1,4]oxazin-4-yl)-6-((3-(4-fluorophenyl)propyl)amino)-1,3,5-triazin-2-yl)amino)propanoic acid]
- suppressive capacity of B expanded ([1]; 10 μM during the 24-hours pre-stimulation phase only): did not affect
- suppression of effector T-cell proliferation ([1]; 10 μM, co-cultures of T cells and B expanded): 79.7±4.9
- inhibition at 10 µM ([1]; 72 h, 10 μM, T cells only, 3 days): 53.7 ± 5.8%
- inhibition at 10 µM ([1]; 10 μM, co-cultures of T cells and B resting): 52.1 ± 7.1%
- IgG1, IgG2, IgG3 and IgG4 production (memory B cells; 10 μM): significant decrease
- titers of all immunoglobulin subclasses (memory B cells; 15 and 20 μM): strongly suppressed
- percentage of caspase-3 positive B cells (B cells; 5 μM): 33.9±15.5%
- percentage of caspase-3 positive B cells (B cells; 10 μM): 25.6±7.5%
- percentage of caspase-3 positive B cells (B cells; 15 μM): 30.8±7.9%
- frequencies of caspase-3 positive cells (B cells; activation phase (days 0-4), even at high concentrations): did not affect
- susceptibility to apoptosis of CD20loCD38hi plasmablast and CD20+CD38+/- non-plasmablast populations (B cells; day 7): reduced susceptibility to apoptosis
